30 molecules from patent US12441679B2, “Acrylamide-substituted indane compounds and therapeutic use thereof” (Sanofi, priority 2020, dated 2025) can be followed below.

Where only a bound is given, the exact number is not on record here.

This experiment relates to YAP1-TEAD and TAZ-TEAD activity (TEAD responsive promoter element). The experiment is described as follows: TEAD-Luciferase Reporter Assay (8XGTIIC-Luciferase construct stably integrated in tumor cell lines). In kind it is cell-based, human. The following applies: Homo sapiens; 8XGTIIC-Luciferase reporter in tumor cell lines, 48 hrs compound treatment, 10 doses 1-10000 nM. An excerpt: TEAD-Luciferase Reporter Assay
Luciferase-based gene reporter assays were used, employing the TEAD responsive promoter element that are stably integrated to different human tumor cell lines in order to monitor YAP1-TEAD and TAZ-TEAD activity and to study YAP1/TAZ-TEAD activity modulation by small molecule compounds. Luciferase-based gene reporter assays employing the GAPDH promoter element and stably integrated to different human tumor cell lines are used as counter screen control cell lines.
Tumor cell lines with stable integration of the 8XGTIIC-Luciferase construct (Dupont et al., Nature 2011) or the GAPDH-Luciferase control plasmid, are seeded in culture medium in 96-well plates at a density of 8000 cells/well. Following an overnight incubation in a 37° C., 5% CO2 growth chamber, cells are treated with compounds described above at 10 doses ranging between 1 and 10000 nM for 48 hrs. After compound incubation, cells are lysed with Bright-Glo Luciferase Assay System (Promega E2620) and luciferase activity is measured using a luminescent plate reader.
The inhibitory activity of the compounds with respect to luciferase activity is given by the concentration which inhibits 50% of activity of non-treated cells. IC50s are determined with a nonlinear regression model on XLfit software analysis (IDBS, UK).
Background: Reporter assays use an easily measured gene product as a stand-in for the process of interest.

What is called IC50 is the concentration that inhibits the measured activity by half. A low value points to inhibition by little substance. With `C=CC(=O)Nc1ccc2c(c1)C(Oc1cccc(C(F)(F)F)c1)CC2` (stereo not drawn) [Example 39, N-(3-(3-(trifluoromethyl)phenoxy)-2,3-dihydro-1H-inden-5-yl)acrylamide], 53 nM corresponded to half-maximal inhibition (IC50).

As for `C=CC(=O)Nc1ccc2c(c1)C(OCC(F)(F)F)CC2` (stereo not drawn) [Example 74, N-(3-(2,2,2-trifluoroethoxy)-2,3-dihydro-1H-inden-5-yl)acrylamide], the midpoint of inhibition, the IC50, lay at 3690 nM.

The molecule `C=CC(=O)Nc1ccc2c(c1)C(Oc1cccc(Cl)c1)CC2` (stereo not drawn) [Example 78, N-(3-(3-chlorophenoxy)-2,3-dihydro-1H-inden-5-yl)acrylamide] registered an IC50 of 52 nM.

`C=CC(=O)N(C)c1ccc2c(c1)CCC2Nc1cccc(C(F)(F)F)c1` (stereo not drawn) [Example 4, N-methyl-N-(1-((3-(trifluoromethyl)phenyl)amino)-2,3-dihydro-1H-inden-5-yl)acrylamide]: the IC50 was 142 nM.

The molecule `C=CC(=O)Nc1ccc2c(c1)C[C@@H](Nc1cccc(F)c1)C2` (single isomer, unassigned) [Example 48] returned a 50% inhibitory concentration (IC50) of 69 nM.

Take `C=CC(=O)Nc1ccc2c(c1)[C@@H](Nc1cccc(C(F)(F)F)c1)[C@H](O)C2` (racemic) [Example 96, N-[rac-(2R,3R)-2-hydroxy-3-[3-(trifluoromethyl)anilino]-2,3-dihydro-1H-inden-5-yl]acrylamide]: the IC50 amounted to 1980 nM.

For the molecule `C=CC(=O)Nc1ccc2c(c1F)CCC2Nc1ccc(C(F)(F)F)cc1` (stereo not drawn) [Example 68, N-[4-fluoro-1-[4-(trifluoromethyl)anilino]-2,3-dihydro-1H-inden-5-yl]acrylamide], the IC50 is 290 nM.

In turn, `C=CC(=O)Nc1ccc2c(c1)C(NC1CCC(F)(F)CC1)CC2` (stereo not drawn) [Example 70, N-(3-((4,4-difluorocyclohexyl)amino)-2,3-dihydro-1H-inden-5-yl)acrylamide] registered a concentration for half-maximal inhibition (IC50) of 5260 nM.

On to `C=CC(=O)Nc1ccc2c(c1)CC(Nc1ccc(C(F)(F)F)cc1)C2` (stereo not drawn) [Example 52, N-[2-[4-(trifluoromethyl)anilino]-2,3-dihydro-1H-inden-5-yl]acrylamide], for which it took 2820 nM to reach half-maximal inhibition (IC50).

`C=CC(=O)Nc1ccc2c(c1)CC(NCCCF)C2` (stereo not drawn) [Example 30, N-(2-((3-fluoropropyl)amino)-2,3-dihydro-1H-inden-5-yl)acrylamide] gave an IC50 of over 10000 nM.

`C=CC(=O)Nc1ccc2c(c1)CC(NC1CCC(F)(F)CC1)C2` (stereo not drawn) [Example 28, N-(2-((4,4-difluorocyclohexyl)amino)-2,3-dihydro-1H-inden-5-yl)acrylamide] came in with an IC50 of 4020 nM.

With `C=CC(=O)Nc1ccc2c(c1)C(Oc1ccc(C(F)(F)F)cn1)CC2` (stereo not drawn) [Example 88, N-[3-[[5-(trifluoromethyl)pyridin-2-yl]oxy]-2,3-dihydro-1H-inden-5-yl]acrylamide], it took 51 nM to reach half-maximal inhibition (IC50).

Consider `C=CC(=O)Nc1ccc2c(c1)CCC2Nc1cc(C(F)(F)F)ccn1` (stereo not drawn) [Example 59, N-(1-((4-(trifluoromethyl)pyridin-2-yl)amino)-2,3-dihydro-1H-inden-5-yl)acrylamide 2,2,2-trifluoroacetate], for which the IC50 stood at 60 nM.

Turning to `C=CC(=O)Nc1ccc2c(c1)[C@@H](OC)C[C@H]2Nc1cccc(C(F)(F)F)c1` (relative stereo) [Example 94, N-[(cis)-3-methoxy-1-[3-(trifluoromethyl)anilino]-2,3-dihydro-1H-inden-5-yl]acrylamide], the midpoint of inhibition, the IC50, lay at 395 nM.

On to `C=CC(=O)Nc1ccc2c(c1)CCC2Nc1ccc(F)cc1` (stereo not drawn) [Example 5, N-(1-((4-fluorophenyl)amino)-2,3-dihydro-1H-inden-5-yl)acrylamide], for which the IC50 is 29 nM.

`C=CC(=O)Nc1ccc2c(c1)CCC2Nc1cncc(C(F)(F)F)c1` (stereo not drawn) [Example 61, N-(1-((5-(trifluoromethyl)pyridin-3-yl)amino)-2,3-dihydro-1H-inden-5-yl)acrylamide] had an IC50 of 178 nM.

`C=CC(=O)Nc1ccc2c(c1)C(Nc1cccc(C(F)(F)F)c1)CC2` (stereo not drawn) [Example 11, N-(3-((3-(trifluoromethyl)phenyl)amino)-2,3-dihydro-1H-inden-5-yl)acrylamide] came in with an IC50 of 37 nM.

With `C=CC(=O)N(C)c1ccc2c(c1)CCC2Oc1cccc(C(F)(F)F)c1` (stereo not drawn) [Example 89, N-methyl-N-(1-(3-(trifluoromethyl)phenoxy)-2,3-dihydro-1H-inden-5-yl)acrylamide], inhibition was half-maximal at 1060 nM (IC50).

`C=CC(=O)Nc1ccc2c(c1)C(C)(C)CC2Nc1cccc(C(F)(F)F)c1` (stereo not drawn) [Example 65, N-(3,3-dimethyl-1-((3-(trifluoromethyl)phenyl)amino)-2,3-dihydro-1H-inden-5-yl)acrylamide] displayed an IC50 of 1850 nM.

`C=CC(=O)Nc1ccc2c(c1)C(Oc1cccc(SC)c1)CC2` (stereo not drawn) [Example 80, N-(3-(3-(methylthio)phenoxy)-2,3-dihydro-1H-inden-5-yl)acrylamide] registered an IC50 of 300 nM.

In turn, `C=CC(=O)Nc1ccc2c(c1)[C@H](Oc1ccc(C(F)(F)F)cc1)CC2` (single isomer, unassigned) [Example 87] returned an IC50 of 28 nM.

Regarding `C=CC(=O)Nc1ccc2c(c1)C[C@@H](Nc1cccc(C(F)(F)F)c1)C2` (single isomer, unassigned) [Example 51], the IC50 was found to be 4330 nM.

On to `C=CC(=O)Nc1ccc2c(c1)CCC2Nc1cccc(C(=O)OC)c1` (stereo not drawn) [Example 22, methyl-3-((5-acrylamido-2,3-dihydro-1H-inden-1-yl)amino)benzoate], for which the IC50 was over 10000 nM.

The molecule `C=CC(=O)Nc1ccc2c(c1)CCC2Oc1ccc(C(F)(F)F)cc1` (stereo not drawn) [Example 82, N-(1-(4-(trifluoromethyl)phenoxy)-2,3-dihydro-1H-inden-5-yl)acrylamide] came in with an IC50 of 31 nM.

As to `C=CC(=O)Nc1ccc2c(c1)CCC2Nc1cccc(C(F)(F)F)c1` (stereo not drawn) [Example 1, N-(1-((3-(trifluoromethyl)phenyl)amino)-2,3-dihydro-1H-inden-5-yl)acrylamide], inhibition was half-maximal at 72 nM (IC50).

Take `C=CC(=O)Nc1ccc2c(c1)C(Nc1cccc(C(F)(F)F)c1)C(F)C2` (stereo not drawn) [Example 91, N-(2-fluoro-3-((3-(trifluoromethyl)phenyl)amino)-2,3-dihydro-1H-inden-5-yl)acrylamide]: the IC50 turned out to be 209 nM.

`C=CC(=O)Nc1ccc2c(c1)C(Oc1cccc(F)c1)CC2` (stereo not drawn) [Example 41, N-(3-(3-fluorophenoxy)-2,3-dihydro-1H-inden-5-yl)acrylamide] displayed an IC50 of 87 nM.

Regarding `C=CC(=O)Nc1ccc2c(c1)C(OCCCC(F)(F)F)CC2` (stereo not drawn) [Example 33, N-(3-(4,4,4-trifluorobutoxy)-2,3-dihydro-1H-inden-5-yl)acrylamide], the IC50 is 170 nM.

Regarding `C=CC(=O)Nc1ccc2c(c1)CCC2Nc1ccc(F)cn1` (stereo not drawn) [Example 21, N-(1-((5-fluoropyridin-2-yl)amino)-2,3-dihydro-1H-inden-5-yl)acrylamide], inhibition was half-maximal at 262 nM (IC50).

Molecule `C=CC(=O)Nc1ccc2c(c1)C(Nc1cc(F)cc(F)c1)CC2` (stereo not drawn) [Example 53, N-(3-((3,5-difluorophenyl)amino)-2,3-dihydro-1H-inden-5-yl)acrylamide] yielded an IC50 of 57 nM.
